Laboratory results from the NIST ThermoML archive (doi:10.1016/j.fluid.2016.08.035).
Numbers after ± are expanded uncertainties.

Assay: xn = mol fraction of the nth substance listed
Conditions: 101 kPa, Liquid; for viscosity: Falling or rolling sphere viscometry; for speed of sound: Sing-around technique in a fixed-path interferometer; for mass density: Vibrating tube method

With `CC12CCC(CC1)C(C)(C)O2` [1,3,3-trimethyl-2-oxabicyclo[2.2.2]octane] + CCCCCCCCCC the viscosity (278.15 K, x1 = 0.1066) was 1.29 ± 0.04 mPa·s, the viscosity (278.15 K, x1 = 0.2007) was 1.39 ± 0.04 mPa·s and the viscosity (278.15 K, x1 = 0.2965) was 1.5 ± 0.04 mPa·s. The viscosity (278.15 K, x1 = 0.4063) was 1.66 ± 0.04 mPa·s, the viscosity (278.15 K, x1 = 0.5005) was 1.82 ± 0.04 mPa·s and the viscosity (278.15 K, x1 = 0.5959) was 2.05 ± 0.04 mPa·s. The viscosity (278.15 K, x1 = 0.7007) was 2.39 ± 0.05 mPa·s, the viscosity (278.15 K, x1 = 0.7989) was 2.86 ± 0.05 mPa·s and the viscosity (278.15 K, x1 = 0.8956) was 3.41 ± 0.05 mPa·s. It also gave a viscosity (278.15 K, x1 = 1) of 4.21 ± 0.05 mPa·s, a speed of sound (278.15 K, x1 = 0.1066) of 1315.5 ± 1.5 m/s and a speed of sound (278.15 K, x1 = 0.2007) of 1316.6 ± 1.5 m/s. For the same compound, the speed of sound (278.15 K, x1 = 0.2965) was 1318.2 ± 1.5 m/s, the speed of sound (278.15 K, x1 = 0.4063) was 1321.2 ± 1.5 m/s and the speed of sound (278.15 K, x1 = 0.5005) was 1324.7 ± 1.5 m/s. The speed of sound (278.15 K, x1 = 0.5959) was 1329 ± 1.5 m/s, the speed of sound (278.15 K, x1 = 0.7007) was 1335 ± 1.5 m/s and the speed of sound (278.15 K, x1 = 0.7989) was 1341.8 ± 1.5 m/s. For the same compound, the speed of sound (278.15 K, x1 = 0.8956) was 1349.5 ± 1.6 m/s, the speed of sound (278.15 K, x1 = 1) was 1359.6 ± 1.6 m/s and the mass density (278.15 K, x1 = 0.1066) was 758.86 ± 0.24 kg/m3. The mass density (278.15 K, x1 = 0.2007) was 775.04 ± 0.24 kg/m3, the mass density (278.15 K, x1 = 0.2965) was 792.05 ± 0.24 kg/m3 and the mass density (278.15 K, x1 = 0.4063) was 812.26 ± 0.24 kg/m3. For the same compound, the mass density (278.15 K, x1 = 0.5005) was 830.26 ± 0.24 kg/m3, the mass density (278.15 K, x1 = 0.5959) was 849.15 ± 0.24 kg/m3 and the mass density (278.15 K, x1 = 0.7007) was 870.67 ± 0.24 kg/m3. For the same compound, the mass density (278.15 K, x1 = 0.7989) was 891.66 ± 0.23 kg/m3, the mass density (278.15 K, x1 = 0.8956) was 913.12 ± 0.23 kg/m3 and the mass density (278.15 K, x1 = 1) was 937.25 ± 0.23 kg/m3. The viscosity (298.15 K, x1 = 0.1066) was 0.93 ± 0.04 mPa·s, the viscosity (298.15 K, x1 = 0.2007) was 1 ± 0.04 mPa·s and the viscosity (298.15 K, x1 = 0.2965) was 1.07 ± 0.04 mPa·s. The viscosity (298.15 K, x1 = 0.4063) was 1.16 ± 0.04 mPa·s, the viscosity (298.15 K, x1 = 0.5005) was 1.26 ± 0.04 mPa·s and the viscosity (298.15 K, x1 = 0.5959) was 1.41 ± 0.04 mPa·s. It also gave a viscosity (298.15 K, x1 = 0.7007) of 1.61 ± 0.04 mPa·s, a viscosity (298.15 K, x1 = 0.7989) of 1.86 ± 0.04 mPa·s and a viscosity (298.15 K, x1 = 0.8956) of 2.16 ± 0.04 mPa·s. It also gave a viscosity (298.15 K, x1 = 1) of 2.6 ± 0.05 mPa·s, a speed of sound (298.15 K, x1 = 0.1066) of 1235.6 ± 1.5 m/s and a speed of sound (298.15 K, x1 = 0.2007) of 1237 ± 1.5 m/s. The speed of sound (298.15 K, x1 = 0.2965) was 1239.1 ± 1.5 m/s, the speed of sound (298.15 K, x1 = 0.4063) was 1242.3 ± 1.5 m/s and the speed of sound (298.15 K, x1 = 0.5005) was 1245.7 ± 1.5 m/s. For the same compound, the speed of sound (298.15 K, x1 = 0.5959) was 1250 ± 1.5 m/s, the speed of sound (298.15 K, x1 = 0.7007) was 1255.6 ± 1.5 m/s and the speed of sound (298.15 K, x1 = 0.7989) was 1261.9 ± 1.5 m/s. The speed of sound (298.15 K, x1 = 0.8956) was 1269.3 ± 1.5 m/s, the speed of sound (298.15 K, x1 = 1) was 1278.4 ± 1.5 m/s and the mass density (298.15 K, x1 = 0.1066) was 743.66 ± 0.24 kg/m3. The mass density (298.15 K, x1 = 0.2007) was 759.71 ± 0.24 kg/m3, the mass density (298.15 K, x1 = 0.2965) was 776.57 ± 0.24 kg/m3 and the mass density (298.15 K, x1 = 0.4063) was 796.58 ± 0.24 kg/m3. It also gave a mass density (298.15 K, x1 = 0.5005) of 814.39 ± 0.24 kg/m3, a mass density (298.15 K, x1 = 0.5959) of 833.07 ± 0.24 kg/m3 and a mass density (298.15 K, x1 = 0.7007) of 854.34 ± 0.24 kg/m3. It also gave a mass density (298.15 K, x1 = 0.7989) of 875.07 ± 0.24 kg/m3, a mass density (298.15 K, x1 = 0.8956) of 896.24 ± 0.23 kg/m3 and a mass density (298.15 K, x1 = 1) of 920.04 ± 0.23 kg/m3. For the same compound, the viscosity (318.15 K, x1 = 0.1066) was 0.71 ± 0.04 mPa·s, the viscosity (318.15 K, x1 = 0.2007) was 0.75 ± 0.04 mPa·s and the viscosity (318.15 K, x1 = 0.2965) was 0.81 ± 0.04 mPa·s. The viscosity (318.15 K, x1 = 0.4063) was 0.87 ± 0.04 mPa·s, the viscosity (318.15 K, x1 = 0.5005) was 0.93 ± 0.04 mPa·s and the viscosity (318.15 K, x1 = 0.5959) was 1.02 ± 0.04 mPa·s. For the same compound, the viscosity (318.15 K, x1 = 0.7007) was 1.14 ± 0.04 mPa·s, the viscosity (318.15 K, x1 = 0.7989) was 1.29 ± 0.04 mPa·s and the viscosity (318.15 K, x1 = 0.8956) was 1.48 ± 0.04 mPa·s. The viscosity (318.15 K, x1 = 1) was 1.73 ± 0.04 mPa·s, the speed of sound (318.15 K, x1 = 0.1066) was 1157.5 ± 1.5 m/s and the speed of sound (318.15 K, x1 = 0.2007) was 1159.5 ± 1.5 m/s. The speed of sound (318.15 K, x1 = 0.2965) was 1162 ± 1.5 m/s, the speed of sound (318.15 K, x1 = 0.4063) was 1165.5 ± 1.5 m/s and the speed of sound (318.15 K, x1 = 0.5005) was 1169.1 ± 1.5 m/s. It also gave a speed of sound (318.15 K, x1 = 0.5959) of 1173.4 ± 1.5 m/s, a speed of sound (318.15 K, x1 = 0.7007) of 1179 ± 1.5 m/s and a speed of sound (318.15 K, x1 = 0.7989) of 1184.9 ± 1.5 m/s. The speed of sound (318.15 K, x1 = 0.8956) was 1192.3 ± 1.5 m/s and the speed of sound (318.15 K, x1 = 1) was 1201 ± 1.5 m/s.
